Patent US4833155A, “3-(ω-(3,5,-di-t-butyl-4-hydroxyphenyl)-alkanoyl)pyrroles, and anti-inflammatory uses thereof” (Syntex (U.S.A.) Inc., priority 1986, dated 1989)
Values joined by “and” are separate entries in the source; they are usually repeats but may differ in a detail not shown here. Equal entries are not always repeated.

Legend:
[1] = test system: adjuvant-induced arthritis (heat-killed Mycobacterium butyricum), hind paw weight increase; experiment: Adjuvant-Induced Arthritis Assay "AI"; type: in vivo; conditions: rat, oral, day 18
Description: Anti-inflammatory activity is determined by the Adjuvant-Induced Arthritis ("AI") Assay, as is well accepted in the art. A modification of the assay described by Pearson, et al., supra., is performed as follows: Female Hla:(SD) BR rats weighing 160-180 g are randomly distributed to treatment groups of 12 animals, and given food and water ad libitum. Test materials are prepared fresh weekly as suspensions in carboxymethyl cellulose. The test animals are orally dosed with the suspensions in volumes of 1 ml twice per day Monday through Friday, and with 2 ml once per day on Saturdays and Sundays. […] At time 0, rats are injected intradermally in the proximal quarter of the tail with 0.1 ml of a mineral oil suspension of heat-killed Mycobacterium butyricum (Difco) at a concentration of 10 mg/ml. On day 18 the intensity of swelling in the four paws and tail is estimated visually and scored (0-4 for paws, 0-3 for tail) such that the total maximum score, indicating intense swelling of all four paws and tail, is 19. The animals are then sacrificed; the hind paws of each animal are removed and weighed. The percent inhibition is calculated by comparing the weight increase of the hind paws of the test animals versus the control animals.

[2] = test system: carrageenan-induced rat paw inflammation; experiment: Carrageenan-Induced Rat Paw Inflammation Assay "CI"; type: in vivo; conditions: oral
Description: Anti-inflammatory activity is determined by the Carrageenan-Induced Rat Paw Inflammation "CI" Assay, as is well accepted in the art. A modification of the assay described by Winter, et al., supra., is performed as follows:
Female albino rats (Sim: (SD)fbr) weighing 80-90 g receive the test materials orally in 1 ml aqueous solution at hour 0. One hour later (hr 1) 0.05 ml of a 1% solution (in aqueous 0.9% NaCl) of carrageenan is injected into the right hind paw to inflame the paw. The rats are sacrificed at hour 4, at which time both hind paws are removed and individually weighed. The percent increase in the weight of the inflamed paw over that of the opposite non-inflamed paw is calculated, and the results are reported according to the formula: [formula]

[3] = test system: arachidonic acid-induced mouse ear edema; experiment: Arachidonic Acid-Induced Mouse Ear Edema Assay "AAI"; type: in vivo; conditions: topical
Description: Topical anti-inflammatory activity is determined by the Arachidonic Acid-Induced Mouse Ear Edema "AAI" Assay, as is well accepted in the art. A modification of the assay described by Young, et al., supra., is performed as follows:
The test materials are prepared as solutions in acetone and applied to the right ears of mice, in groups of eight (8), at hour 0. At hour 1, 2 mg of arachidonic acid in acetone solution is applied to the right ears of the mice to induce an inflammatory response. The left ears of these animals serves as negative controls. At hour 2 the mice are sacrificed; their ears are removed and 8 mm diameter full thickness plugs are cut from the tip of each ear. The plugs are weighed and the mean right and left plug weights are calculated for each group. The results are expressed as percent inhibition of ear plug weight increase relative to a positive control group receiving only acetone at hour 0.

[4] = test system: phenylquinone-induced writhing; experiment: Phenylquinone-Induced Mouse Writhing Assay "PI" (cyclooxygenase-inhibition activity); type: in vivo
Description: Cyclooxygenase-inhibition activity is determined by the Phenylquinone-Induced Mouse Writhing "PI" Assay, as is well accepted in the art. A modification of the assay described by Hendershot, et al., supra., is performed as follows:
Phenylquinone solution is prepared as follows: 4 mg of phenylquinone is dissolved in 0.5 ml of absolute ethanol, after which 19.5 ml of warmed distilled water is added. When properly prepared, all of the phenylquinone solution remains in solution. The solution is used soon after preparation.
The test materials are administered in 0.2 ml of an aqueous vehicle at hour 0 to groups of eight male Swiss-Webster (Simonsen) mice weighing about 18-20 g. At either twenty (20 ) minutes or one hundred twenty (120) minutes later, 0.25 ml of a 0.02% solution of phenylquinone is injected into each animal, to induce writhing. The animals are then observed for the next ten (10) minutes for writhing responses, and the number of writhes per animal is recorded. The mean number of writhes is calculated for each treatment group and the results are expressed as percent inhibition of writhing responses relative to a control group receiving vehicle alone.

[5] = Isomura et al., Chem. Pharm. Bull. 32(1): 152-165 (1984); cited from earlier work
[6] = test system: lipoxygenase in human polymorphonuclear leukocytes; experiment: Human Polymorphonuclear Leukocyte Assay "HPMN" (lipoxygenase inhibition); type: cell-based; conditions: dose 36.0 μg
Description: Lipoxygenase inhibition activity is determined in vitro by the Human Polymorphonuclear Leukocyte ("HPMN") Assay, as is well accepted in the art. A modification of the assay described by Radmark, et al., supra., is performed as follows:
1. Preparation of the cells: The HPMNs are prepared from 200-300 ml of heparinized blood of healthy donors not receiving any medication for at least 7 days, using Ficol-Hypaque gradients. In general, HPMNs are greater than 90% pure and their viability is assessed by dye-exclusion to be better than 95%. The cells are suspended in phosphate buffered saline containing 1.0 mM CaCl2 (PH 7.4) and 0.1% ovalbumin, and used within 30 minutes.
2. Lipoxygenase Assay: Incubations are carried out at 37° C. for 5 minutes in a total volume of 0.2 ml arachidonic acid 1-C^14 (1×10^-4 M unless otherwise indicated, and approximately 300,000 cpm) is added to a suspension of cells (ca 5×10^6) to initiate the reaction. […]
1.6 Ml of deionized water is added, vortexed, and centrifuged. […] The eluates are collected in scintillation vials and 1.0 ml aliquot from each of the two fractions are counted for radioactivity in a Packard liquid scintillation counter. From the radioactivity data thus obtained percent yields of total lipoxygenase products in blanks, controls and drug-containing tubes are calculated as well as percent inhibition by the test compounds.

[7] = phenylquinone 20 min after dose, 5.0 mg/kg
[8] = phenylquinone 20 min after dose, 15.0 mg/kg
[9] = phenylquinone 120 min after dose, 15.0 mg/kg

Row | SMILES | inhibition of hind paw weight increase ([1]; daily dose 0.4 mg/kg) | inhibition of hind paw weight increase ([1]; daily dose 2.0 mg/kg) | Inhibition (CI) ([2]; dose 1.0 mg/kg) | Inhibition (CI) ([2]; dose 10.0 mg/kg) | Inhibition (AAI), ear plug weight increase ([3]; dose 0.5 mg/ear) | Inhibition (AAI), ear plug weight increase ([3]; dose 1.0 mg/ear) | Inhibition (AAI), ear plug weight increase ([3]; dose 2.0 mg/ear) | Inhibition (PI), writhing responses ([4]; phenylquinone 20 min after dose, 0.1 mg/kg) | Inhibition (PI), writhing responses ([4]; phenylquinone 20 min after dose, 1.0 mg/kg) | Inhibition (PI), writhing responses ([4]; phenylquinone 20 min after dose, 1.5 mg/kg) | Inhibition (PI), writhing responses [4, 7] | Inhibition (PI), writhing responses [4, 8] | Inhibition (PI), writhing responses [4, 9] | anti-inflammatory activity as reported [5] | Inhibition (CI) ([2]; dose 100.0 mg/kg) | Inhibition (PI), writhing responses ([4]; phenylquinone 20 min after dose, 50.0 mg/kg) | Inhibition (HPMN), total lipoxygenase products [6]
1 | CC(C)(C)c1cc(C(=O)c2cc[nH]c2)cc(C(C)(C)C)c1O [A, 3-(3,5-di-t-butyl-4-hydroxybenzoyl)pyrrole] | 54% | 70% | 24% | 44% | 49% | 62% | 67% and 69% | 15% | 61% | 100% | 99% | 97% and 96% | 100% |  |  |  | 
2 | Cc1[nH]ccc1-c1cc(C(C)(C)C)c(O)c(C(C)(C)C)c1 [Formula VIII] |  |  |  |  |  |  |  |  |  |  |  |  |  | inactive |  |  | 
3 | CC(C)(C)c1cc(C(=O)c2ccc[nH]2)cc(C(C)(C)C)c1O [B, 2-(3,5-di-t-butyl-4-hydroxybenzoyl)pyrrole, reference compound] |  |  |  |  |  |  | 22% |  |  |  | 26% | 40% and 52% and 65% | 49% |  | 30% | 56% and 38% | 50%
